# Test results published in patent US6737383B1, “Herbicidal oxadiazolidines” (priority 1999, dated 2004).
# What was measured:
# sandbur = test: Test D sandbur; format: in vivo, Cenchrus echinatus; details: Preemergence, 0 to 100 scale
# Method in brief: (§1)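 Weed seeds planted in sandy loam; species kept apart in individual pots or compartments. Preemergence tests: treatment to soil surface within one day. Greenhouse growth, then visual injury scoring at 14–21 days (0–100).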
# dallisgrass = test: Test D dallisgrass; format: in vivo, Paspalum dilatatum; details: Preemergence, 0 to 100 scale
# Method in brief: as §1
# guineagrass = test: Test D guineagrass; format: in vivo, Panicum maximum; details: Preemergence, 0 to 100 scale
# Method in brief: as §1
# Alexandergrass = test: Test D Alexandergrass; format: in vivo, Brachiaria plantaginea; details: Preemergence, 0 to 100 scale
# Method in brief: as §1
# itchgrass = test: Test D itchgrass; format: in vivo, Rottboellia exaltata; details: Preemergence, 0 to 100 scale
# Method in brief: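 Scoring used a 0–100 visual injury scale, with 0 meaning no effect and 100 complete control, assessed 14–21 days after application alongside untreated pots. Preemergence treatments went onto sandy loam surfaces of separately potted seeds within a day of sowing.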
# surinam grass = test: Test D surinam grass; format: in vivo, Brachiaria decumbens; details: Preemergence, 0 to 100 scale
# Method in brief: as §1
# common ragweed = test: Test D common ragweed; format: in vivo, Ambrosia elatior; details: Preemergence, 0 to 100 scale
# Method in brief: as §1
# common pursiane = test: Test D common purslane; format: in vivo, Portulaca oleracea
# Method in brief: as §1
# large crabgrass = test: Test D large crabgrass; format: in vivo, Digitaria sanguinalis; details: Preemergence, 0 to 100 scale
# Method in brief: as §1
# Green foxtail = test: Test D green foxtail; format: in vivo; details: Preemergence, 0 to 100 scale
# Method in brief: as §1
# wild poinsettia = test: Test C postemergence wild poinsettia; format: in vivo, Euphorbia heterophylla; details: 0 to 100 scale, 0 no effect, 100 complete control
# Method in brief: (§2)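 Soil: sandy loam/potting mix 60:40. Treatment: postemergence, solvent + surfactant formulation. Readout: visual control score 0–100 vs untreated at ~14–21 days.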
# common groundsel = test: Test D common groundsel; format: in vivo, Senecio vulgaris; details: Preemergence, 0 to 100 scale
# Method in brief: as §1
# purple nutsedge = test: Test D purple nutsedge; format: in vivo, Cyperus rotundus; details: Preemergence, 0 to 100 scale
# Method in brief: as §1
# Johnson grass = test: Test D Johnson grass; format: in vivo, Sorghum halepense; details: Preemergence, 0 to 100 scale
# Method in brief: as §1
# bermuda-grass = test: Test D bermudagrass; format: in vivo, Cynodon dactylon; details: Preemergence, 0 to 100 scale
# Method in brief: as §1
# Spanishneedles = test: Test D Spanishneedles; format: in vivo, Bidens bipinnata; details: Preemergence, 0 to 100 scale
# Method in brief: as §1
# goosegrass = test: Test D goosegrass; format: in vivo, Eleusine indica; details: Preemergence, 0 to 100 scale
# Method in brief: as §1
# johnsongrass = test: Test C postemergence johnsongrass; format: in vivo, Sorghum halepense; details: 0 to 100 scale, 0 no effect, 100 complete control
# Method in brief: as §2
# [1] = Rate 125 g/ha, 0 no injury, 100 complete control
smiles,measurement,setting,value
CC(C)N(C(=O)n1oc(=O)n(Cc2ccccc2)c1=O)c1ccccc1 [Compound 94],Sandbur plant response rating,sandbur; [1],20
same,"Plant response rating, Sandbur",sandbur; Rate 500 g/ha,100
same,"Plant response rating, Dallisgrass",dallisgrass; [1],98
same,"Plant response rating, Dallisgrass",dallisgrass; Rate 500 g/ha,100
same,"Plant response rating, Guineagrass",guineagrass; [1],0
same,"Plant response rating, Guineagrass",guineagrass; Rate 500 g/ha,100
same,"Plant response rating, Alexandergrass",Alexandergrass; [1],50
same,"Plant response rating, Alexandergrass",Alexandergrass; Rate 500 g/ha,80
same,"Plant response rating, Itchgrass",itchgrass; [1],0
same,"Plant response rating, Itchgrass",itchgrass; Rate 500 g/ha,40
same,Surinam grass plant response rating,surinam grass; [1],80
same,Plant response rating Surinam grass,surinam grass; Rate 500 g/ha,90
same,"Plant response rating, C. ragweed",common ragweed; [1],0
same,"Plant response rating, C. ragweed",common ragweed; Rate 500 g/ha,10
same,"Plant response rating, C. purslane","common pursiane; Rate 125 g/ha, Preemergence; 0 to 100 scale, 0 no injury, 100 complete control",0
same,"Plant response rating, C. purslane","common pursiane; Rate 500 g/ha, Preemergence; 0 to 100 scale",10
same,"Plant response rating, C. purslane",common pursiane; Rate 500 g/ha; Preemergence; 0 to 100 scale,0
same,Plant response rating Large crabgrass,large crabgrass; [1],98
same,Plant response rating Large crabgrass,large crabgrass; Rate 500 g/ha,100
same,Green foxtail plant response rating,Green foxtail; [1],90
same,"Plant response rating, Green foxtail",Green foxtail; [1],90
same,"Plant response rating, Green foxtail",Green foxtail; Rate 500 g/ha,100
same,Plant response rating Wild poinsettia,wild poinsettia; Rate 140 g/ha,0
same,Plant response rating Wild poinsettia,wild poinsettia; Rate 280 g/ha,0
same,Plant response rating Wild poinsettia,wild poinsettia; Rate 560 g/ha,60
same,Plant response rating Wild poinsettia,wild poinsettia; Rate 1120 g/ha,85
same,"Plant response rating, Com. groundsel",common groundsel; [1],75
same,"Plant response rating, Com. groundsel",common groundsel; Rate 500 g/ha,100
same,Purple nutsedge plant response rating,purple nutsedge; [1],50
same,"Plant response rating, Purple nutsedge",purple nutsedge; Rate 500 g/ha,50
same,Plant response rating Johnsongrass,Johnson grass; [1],0
same,Plant response rating Johnsongrass,Johnson grass; Rate 500 g/ha,20
same,"Plant response rating, Bermudagrass",bermuda-grass; [1],90
same,"Plant response rating, Bermudagrass",bermuda-grass; Rate 500 g/ha,100
same,Spanishneedles plant response rating,Spanishneedles; [1],0
same,"Plant response rating, Spanishneedles",Spanishneedles; Rate 500 g/ha,0
same,"Plant response rating, Goosegrass",goosegrass; [1],85
same,"Plant response rating, Goosegrass",goosegrass; Rate 500 g/ha,100
same,Plant response rating Johnsongrass,johnsongrass; Rate 140 g/ha,0
same,Plant response rating Johnsongrass,johnsongrass; Rate 280 g/ha,0
same,Plant response rating Johnsongrass,johnsongrass; Rate 560 g/ha,0
same,Plant response rating Johnsongrass,johnsongrass; Rate 1120 g/ha,0
